Assay results: US4996236A, “Therapeutic composition for hepatic encephalopathy” (Takeda Chemical Industries, Ltd., priority 1988, dated 1991)

Experiments:
[1] = Acute oral toxicity in rats; conditions: rat, in vivo, rats (Wistar)
[2] = Blood ammonia level-lowering effect in rats on high-protein diet; type: in vivo, rat (male SD); conditions: for Blood ammonia level: 7 days, mean ± S.D., 5 animals
Method: The blood ammonia level-lowering effect of N-(1,3-dihydroxy-2-propyl)valiolamine in rats
Male SD rats aged […] were fed either on a regular diet or a high-protein powder diet containing 61% of casein for 7 days. N-(1,3-dihydroxy-2-propyl)valiolamine (hereinafter referred to shortly as AO-128) was added to the high-protein diet at final concentrations of 10 and 50 ppm. The animals had free access to the diets and the mean daily food intake was approximately 18 g/day. On the 7th day, laparotomy was performed under ether anesthesia and the blood was collected from the abdominal aorta. The blood ammonia level was estimated using an assay kit, a product of WAKO.

[3] = Acute oral toxicity in mice; conditions: mouse, in vivo, mice (NRMI)
α-glucosidase = conditions: cited from earlier work
[4] = diabetics accompanied with hepatocirrhosis; cited from earlier work

Structure (SMILES)	LD50 [1] [mg/kg]	Blood ammonia level ([2]; 10 ppm AO-128 in high-protein diet (61% casein)) [µg/dL]	Blood ammonia level ([2]; 50 ppm AO-128 in high-protein diet (61% casein)) [µg/dL]	blood ammonia level versus high-protein diet control group ([2]; AO-128 treated high-protein diet group, 10 and 50 ppm)	LD50 [3] [mg/kg]	α-glucosidase inhibitory activity (α-glucosidase)	effect on blood ammonia level [4]
OCC(CO)N[C@H]1C[C@](O)(CO)[C@@H](O)[C@H](O)[C@H]1O [AO-128, N-(1,3-dihydroxy-2-propyl)valiolamine]	~20000	88 ± 7	90 ± 8	overtly lower blood ammonia level than the high-protein diet control group	14700 to 21500	–	–
C[C@H]1O[C@H](O[C@H]2[C@H](O)[C@@H](O)[C@@H](O[C@H]3[C@H](O)[C@@H](O)C(O)O[C@@H]3CO)O[C@@H]2CO)[C@H](O)[C@@H](O)[C@@H]1N[C@H]1C=C(CO)[C@@H](O)[C@H](O)[C@H]1O (stereo partly shown) [acarbose]	–	–	–	–	–	α-glucosidase inhibitor	lowers the blood ammonia level
